Results on seven molecules are retold here after patent US12459951B2, “Compounds that interact with RAS superfamily proteins for treatment of cancers, inflammatory diseases, rasopathies, and fibrotic disease” (SHY Therapeutics, LLC, priority 2022, dated 2025).

The structures appear in SMILES notation. pIC50: −log10 of the molar value.

One assay relates to MAPK p38 phosphorylation. Kind of assay: MAPK p38 Activation Assay (western blot), Panc-1. It is filed as cell-based, human. To be noted: at 10 μM, Panc-1 pancreatic cancer cell line; starred symbols = activation. The essentials:
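Panc-1 cells (KRas G12D) were treated with compound for 6 h at 37 °C, at 10 μM or as serial dilutions for IC50, with 0.3% DMSO. Method 1 used overnight serum-starved cells (0.5% FBS) stimulated with 1.5 ng/ml EGF for 15 min; Method 2 used unstimulated cells in 10% FBS. Phospho-p38 (Thr180/Tyr182) was detected by western blot.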
(In general: Immunoblotting shows a protein as a band on a membrane.)

Assay [1] has as its system MiaPaca-2 (expressing KRAS G12C mutant). As to the kind of experiment: Proliferation Assay (Cell Viability Assay). The format is cell-based. The conditions noted are these: Homo sapiens, MIA PaCa-2; read-out: Proliferation in MiaPaca-2: IC50. In outline: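 After 2–4 days' exposure at 37 °C, 5% CO2 to a single 10 μM final concentration or a dilution series (IC50), percent proliferation inhibition was derived from CellTiter 96 Aqueous One viability readings. The medium contained 0.3% DMSO and 10% FBS. KRAS G12C MiaPaca-2 cells were plated at 2000–5000/well the day before.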

In the case of `CO[C@H]1C[C@H](Nc2nc(-c3nccn3C)nn3cc(-c4cccnc4)c(-c4ccccc4)c23)C1` [Compound 192, N-((1r,3r)-3-Methoxycyclobutyl)-2-(1-methyl-1H-imidazol-2-yl)-5-phenyl-6-(pyridin-3-yl)pyrrolo[2,1-f][1,2,4]triazin-4-amine], the “% inh of MAPK p38 in Panc-1” value in the assay on MAPK p38 phosphorylation is on record as “E* (E* = 1-30% activation)”. Further, the pIC50 in assay [1] is less than 6.00.

Consider `CO[C@@H]1C[C@H]1Nc1nc(-c2nccn2C)nn2cc(-c3cccnc3)c(-c3ccccc3)c12` (racemic) [Compound 190, N-((1R,2R)-2-Methoxycyclopropyl)-2-(1-methyl-1H-imidazol-2-yl)-5-phenyl-6-(pyridin-3-yl)pyrrolo[2,1-f][1,2,4]triazin-4-amine], for which the “% inh of MAPK p38 in Panc-1” value in the assay with MAPK p38 phosphorylation was “E (E = 1-30% inhibition)”. Further, in assay [1], the pIC50 was less than 6.00.

As to `COCC1CCN(c2nc(-c3ccccn3)nn3cc(-c4ccn(C(C)C)n4)c(C)c23)C1` (racemic) [Compound 10, rac 6-(1-Isopropyl-1H-pyrazol-3-yl)-4-(3-(methoxymethyl)pyrrolidin-1-yl)-5-methyl-2-(pyridin-2-yl)pyrrolo[2,1-f][1,2,4]triazine], the “% inh of MAPK p38 in Panc-1” value in the assay with MAPK p38 phosphorylation is given as “G* (G* = 75-99% activation)”. The pIC50 in assay [1] is less than 6.00.

For the molecule `COCCNc1nc(-c2nccn2C)nn2cc(-c3ccncc3)c(-c3ccccc3)c12` [Compound 202, N-(2-Methoxyethyl)-2-(1-methyl-1H-imidazol-2-yl)-5-phenyl-6-(pyridin-4-yl)pyrrolo[2,1-f][1,2,4]triazin-4-amine], the “% inh of MAPK p38 in Panc-1” value with MAPK p38 phosphorylation is “E (E = 1-30% inhibition)”. In addition, the pIC50 in assay [1] was less than 6.00.

For the molecule `CO[C@H]1C[C@H](Nc2nc(-c3nccn3C)nn3cc(-c4cccc(CN)c4)c(-c4ccccc4)c23)C1` [Compound 204, 6-(3-(aminomethyl)phenyl)-N-((1r,3r)-3-methoxycyclobutyl)-2-(1-methyl-1H-imidazol-2-yl)-5-phenylpyrrolo[2,1-f][1,2,4]triazin-4-amine], the “% inh of MAPK p38 in Panc-1” value in the assay on MAPK p38 phosphorylation is reported as “E (E = 1-30% inhibition)”. In assay [1], the pIC50 was less than 6.00.

As to `CO[C@H]1C[C@@H](Nc2nc(-c3nccn3C)nn3cc(-c4ccncc4)c(-c4ccccc4)c23)C1` [Compound 198, N-((1s,3s)-3-Methoxycyclobutyl)-2-(1-methyl-1H-imidazol-2-yl)-5-phenyl-6-(pyridin-4-yl)pyrrolo[2,1-f][1,2,4]triazin-4-amine], the “% inh of MAPK p38 in Panc-1” value in the assay on MAPK p38 phosphorylation was “E (E = 1-30% inhibition)”. Moreover, in assay [1], the pIC50 is less than 6.00.

As for `COc1cc(Nc2nc(-c3ccccn3)nn3cc(-c4ccn(C(C)C)n4)c(C)c23)ncn1` [Compound 13, 6-(1-Isopropyl-1H-pyrazol-3-yl)-N-(6-methoxypyrimidin-4-yl)-5-methyl-2-(pyridin-2-yl)pyrrolo[2,1-f][1,2,4]triazin-4-amine], the “% inh of MAPK p38 in Panc-1” value with MAPK p38 phosphorylation was “H* (H* ≥ 100% activation)”. The pIC50 in assay [1] was 6.30 to 6.82.
